pIC50: −log10 of the molar value. Activity calls are given as the source filed them.

Usually IC50 stands for the point on the concentration scale where inhibition reaches its midpoint. A word on the EC50: it is the concentration at which the effect is half-maximal. The term pIC50 denotes −log10 of the IC50, conventionally taken in molar units. The term AC50 denotes the concentration at which the activity in the assay is half-maximal.

The target of assay [1] is T1, Bcl-2-like protein 10 (Homo sapiens, UniProt Q9HD36).
T1 sequence (Q9HD36 whole entry): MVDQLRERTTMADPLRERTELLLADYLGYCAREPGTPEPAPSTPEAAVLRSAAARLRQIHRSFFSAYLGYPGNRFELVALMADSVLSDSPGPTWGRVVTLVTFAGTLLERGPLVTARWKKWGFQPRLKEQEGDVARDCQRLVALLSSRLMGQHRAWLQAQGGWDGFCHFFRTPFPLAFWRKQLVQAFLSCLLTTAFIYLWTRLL
Put plainly: displacers of TR3 peptide from Bcl-B, primary screen, selectivity assay for Bfl-1 inhibitor project, biochemical, fluorescence polarization, FITC-TR3 peptide (AID 748).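 Note: fluorescence polarization from a fluorescein-labelled TR3 peptide binding purified Bcl-B.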

In assay [2] the target is DNA dC->dU-editing enzyme APOBEC-3G (Homo sapiens, UniProt Q9HC16). As to the kind of experiment: Dose Response confirmation of small molecule APOBEC3G DNA Deaminase Inhibitors via a fluorescence-based single-stranded DNA deaminase assay. [Related pubchem assays (depositor defined):AID493012, AID493028]. Type of assay: functional.
The target of assay [3] is T2, Kappa-type opioid receptor (Homo sapiens, UniProt P41145). It counts as functional.
The target in assay [4] is Beta-galactosidase (Escherichia coli, UniProt Q8VNN2). It counts as functional.
Assay [5] has as its target T2, Kappa-type opioid receptor. Type of assay: functional. The source holds these as a separate data set.
Assay [6] concerns the target Trypsin (Sus scrofa, UniProt P00761). Put plainly: porcine trypsin inhibitors, dose response, selectivity assay for Rce1 protease inhibitor project, biochemical, quenched peptide fluorescence, cherry-pick (AID 488789).
Assay [7] deals with Kallikrein-7 (Homo sapiens, UniProt P49862). Put plainly: Fluorescence Intensity-based biochemical primary high throughput dose response assay to identify activators of kallikrein-7 (K7) zymogen.
Assay [8] addresses T3, Leucine aminopeptidase (Plasmodium falciparum 3D7, UniProt Q8IL11).
T3 sequence (Q8IL11 whole entry): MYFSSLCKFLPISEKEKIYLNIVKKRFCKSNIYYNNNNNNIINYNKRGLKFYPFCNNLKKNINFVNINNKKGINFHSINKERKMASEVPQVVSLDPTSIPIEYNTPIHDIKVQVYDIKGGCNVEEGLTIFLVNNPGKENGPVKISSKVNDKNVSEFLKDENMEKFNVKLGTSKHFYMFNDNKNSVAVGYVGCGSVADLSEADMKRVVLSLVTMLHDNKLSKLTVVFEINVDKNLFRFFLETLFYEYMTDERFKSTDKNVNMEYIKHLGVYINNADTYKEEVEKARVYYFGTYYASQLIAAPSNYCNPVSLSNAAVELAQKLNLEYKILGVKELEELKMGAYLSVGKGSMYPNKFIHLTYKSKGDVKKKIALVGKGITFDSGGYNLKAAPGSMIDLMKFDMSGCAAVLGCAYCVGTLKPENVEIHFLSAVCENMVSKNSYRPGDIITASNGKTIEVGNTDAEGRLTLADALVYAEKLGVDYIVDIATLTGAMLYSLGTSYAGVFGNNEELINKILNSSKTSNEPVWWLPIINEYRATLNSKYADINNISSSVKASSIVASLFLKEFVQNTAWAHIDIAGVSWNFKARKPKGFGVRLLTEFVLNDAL
As to the kind of experiment: P. falciparum M17LAP inhibitors, primary screen, biochemical, fluorogenic H-Leu-NHMec substrate, 1536-well (AID 1619). It counts as functional.

Assay [9] has as its target T4, Aminopeptidase N (Plasmodium falciparum FcB1/Columbia, UniProt O96935).
T4 sequence (O96935 whole entry): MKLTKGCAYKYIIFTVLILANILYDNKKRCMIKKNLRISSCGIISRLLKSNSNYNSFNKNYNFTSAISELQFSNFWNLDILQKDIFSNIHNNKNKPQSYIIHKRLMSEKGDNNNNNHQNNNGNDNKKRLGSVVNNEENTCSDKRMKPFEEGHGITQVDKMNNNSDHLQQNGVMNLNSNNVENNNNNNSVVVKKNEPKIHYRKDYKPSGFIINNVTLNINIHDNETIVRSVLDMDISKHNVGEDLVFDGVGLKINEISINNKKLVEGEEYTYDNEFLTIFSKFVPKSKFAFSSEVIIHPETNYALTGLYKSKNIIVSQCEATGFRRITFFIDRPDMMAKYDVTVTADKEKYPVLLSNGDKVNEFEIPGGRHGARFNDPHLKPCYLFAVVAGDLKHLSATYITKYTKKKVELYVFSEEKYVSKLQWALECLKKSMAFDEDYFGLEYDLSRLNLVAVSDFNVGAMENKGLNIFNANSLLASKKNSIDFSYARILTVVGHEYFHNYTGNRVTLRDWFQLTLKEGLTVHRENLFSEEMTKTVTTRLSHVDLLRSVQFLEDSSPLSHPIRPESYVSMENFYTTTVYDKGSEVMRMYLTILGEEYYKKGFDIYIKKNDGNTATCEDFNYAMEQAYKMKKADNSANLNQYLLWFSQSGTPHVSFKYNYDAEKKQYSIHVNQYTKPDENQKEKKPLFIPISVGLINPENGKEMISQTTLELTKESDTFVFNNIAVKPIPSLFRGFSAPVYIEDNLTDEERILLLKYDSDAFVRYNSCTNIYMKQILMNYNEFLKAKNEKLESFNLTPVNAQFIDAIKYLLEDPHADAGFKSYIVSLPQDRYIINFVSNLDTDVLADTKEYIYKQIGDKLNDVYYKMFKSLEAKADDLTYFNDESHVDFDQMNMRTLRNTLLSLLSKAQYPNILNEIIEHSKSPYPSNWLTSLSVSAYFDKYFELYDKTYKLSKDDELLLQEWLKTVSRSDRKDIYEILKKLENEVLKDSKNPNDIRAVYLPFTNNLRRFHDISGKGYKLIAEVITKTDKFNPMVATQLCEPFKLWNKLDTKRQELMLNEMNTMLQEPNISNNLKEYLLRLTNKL
As to the kind of experiment: P. falciparum M1AAP inhibitors, biochemical, fluorogenic H-Leu-NHMec substrate, 1536-well (AID 1445). Details: species or system Plasmodium falciparum 3D7, 3D7.

The target in assay [10] is Large T antigen (Simian virus 40, UniProt P03070). It counts as functional, Betapolyomavirus macacae.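 Note: Confirmatory-stage PubChem screen for compounds that inhibit SV40 T antigen.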
The target in assay [11] is Voltage-dependent T-type calcium channel subunit alpha-1H (Homo sapiens, UniProt O95180). Type of assay: functional.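 Note: channel activity triggered by adding a high calcium stimulation buffer.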
Assay [12] has as its target T5, Estrogen receptor beta (Homo sapiens, UniProt Q92731).
The target of assay [13] is T5, Estrogen receptor beta. As to the kind of experiment: ERβ–SRC-3 coactivator interaction inhibitors, confirmation, orthogonal assay, biochemical, ELISA, streptavidin-HRP readout (AID 1060). A general note: ELISA stands for enzyme-linked immunosorbent assay.
The nature of assay [14]: NIH-3T3 fibroblast cytotoxicity, dose response, cytotoxicity control, cell-based, fluorescence, Alamar Blue, secondary assay (AID 2327).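 Note: NIH-3T3 mouse fibroblasts cultured with fluconazole at 8 µg/mL.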 Type of assay: functional. On the technique in general: Resazurin is reduced to fluorescent resorufin, in cell work by metabolically active cells.
Assay [15] can be described thus: C. albicans growth with fluconazole, confirmation, fluorescence, retest (AID 2467). Type of assay: functional, cell-based.
The target of assay [16] is Induced myeloid leukemia cell differentiation protein Mcl-1 (Homo sapiens, UniProt Q07820). Type of assay: functional.
Assay [17] addresses T6, Replicative DNA helicase DnaB (Mycobacterium tuberculosis, UniProt P9WMR3).
T6 sequence (P9WMR3 whole entry): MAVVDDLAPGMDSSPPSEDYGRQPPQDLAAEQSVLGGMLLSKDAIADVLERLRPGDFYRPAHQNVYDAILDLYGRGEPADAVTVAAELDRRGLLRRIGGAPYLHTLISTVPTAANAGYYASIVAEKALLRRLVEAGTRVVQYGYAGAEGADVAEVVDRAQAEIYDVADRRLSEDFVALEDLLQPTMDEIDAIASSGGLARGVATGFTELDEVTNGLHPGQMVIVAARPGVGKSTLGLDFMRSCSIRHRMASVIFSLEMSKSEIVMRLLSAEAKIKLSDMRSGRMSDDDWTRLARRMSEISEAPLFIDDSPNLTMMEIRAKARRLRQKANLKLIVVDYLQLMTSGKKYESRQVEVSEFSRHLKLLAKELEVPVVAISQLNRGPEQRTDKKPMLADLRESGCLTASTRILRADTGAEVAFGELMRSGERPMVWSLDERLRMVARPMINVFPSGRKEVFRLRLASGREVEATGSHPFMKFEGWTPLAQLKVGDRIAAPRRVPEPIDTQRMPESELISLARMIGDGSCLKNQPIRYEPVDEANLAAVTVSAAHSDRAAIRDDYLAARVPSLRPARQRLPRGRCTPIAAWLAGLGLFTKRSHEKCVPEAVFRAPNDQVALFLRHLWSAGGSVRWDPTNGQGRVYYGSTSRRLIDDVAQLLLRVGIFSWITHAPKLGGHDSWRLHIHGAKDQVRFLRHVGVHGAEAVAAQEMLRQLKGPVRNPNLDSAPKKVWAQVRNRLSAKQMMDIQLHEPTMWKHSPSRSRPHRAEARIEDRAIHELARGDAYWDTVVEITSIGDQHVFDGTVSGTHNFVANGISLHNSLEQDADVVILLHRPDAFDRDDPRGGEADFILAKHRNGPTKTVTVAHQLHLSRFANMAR
Put plainly: DnaB intein splicing inhibitors, dose response, biochemical, cell-free fluorescence (AID 449749). Type of assay: functional.

Assay [18] addresses T7, Protein RecA (Mycobacterium tuberculosis, UniProt P9WHJ3).
T7 sequence (P9WHJ3 whole entry): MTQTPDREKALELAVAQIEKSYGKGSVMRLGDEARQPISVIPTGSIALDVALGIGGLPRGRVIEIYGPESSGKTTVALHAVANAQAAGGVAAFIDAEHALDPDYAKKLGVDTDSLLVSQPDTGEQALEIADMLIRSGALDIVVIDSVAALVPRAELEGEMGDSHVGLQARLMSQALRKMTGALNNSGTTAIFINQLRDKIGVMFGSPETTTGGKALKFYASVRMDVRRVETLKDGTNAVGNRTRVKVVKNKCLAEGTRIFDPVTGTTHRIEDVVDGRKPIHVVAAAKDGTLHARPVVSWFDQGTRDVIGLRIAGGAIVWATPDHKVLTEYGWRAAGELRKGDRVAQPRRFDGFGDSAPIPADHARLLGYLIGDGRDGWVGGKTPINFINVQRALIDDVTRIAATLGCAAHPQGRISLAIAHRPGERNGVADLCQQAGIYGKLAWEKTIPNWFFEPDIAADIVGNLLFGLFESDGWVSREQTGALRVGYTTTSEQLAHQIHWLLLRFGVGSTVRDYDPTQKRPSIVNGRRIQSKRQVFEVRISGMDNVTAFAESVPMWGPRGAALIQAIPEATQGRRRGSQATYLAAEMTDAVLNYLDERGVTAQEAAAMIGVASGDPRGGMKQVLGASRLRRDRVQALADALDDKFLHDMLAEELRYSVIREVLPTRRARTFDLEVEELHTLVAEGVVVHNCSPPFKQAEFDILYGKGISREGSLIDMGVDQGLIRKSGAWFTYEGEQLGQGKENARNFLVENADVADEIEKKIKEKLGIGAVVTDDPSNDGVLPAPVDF
Put plainly: Fluorescence Cell-Free Homogeneous Dose Retest to Identify Inhibitors of RecA-Intein Splicing Activity. [Related pubchem assays (depositor defined):AID2097, AID2223, AID489010, AID492950]. Type of assay: functional.

Chain of Voltage-dependent T-type calcium channel subunit alpha-1H (O95180 whole entry): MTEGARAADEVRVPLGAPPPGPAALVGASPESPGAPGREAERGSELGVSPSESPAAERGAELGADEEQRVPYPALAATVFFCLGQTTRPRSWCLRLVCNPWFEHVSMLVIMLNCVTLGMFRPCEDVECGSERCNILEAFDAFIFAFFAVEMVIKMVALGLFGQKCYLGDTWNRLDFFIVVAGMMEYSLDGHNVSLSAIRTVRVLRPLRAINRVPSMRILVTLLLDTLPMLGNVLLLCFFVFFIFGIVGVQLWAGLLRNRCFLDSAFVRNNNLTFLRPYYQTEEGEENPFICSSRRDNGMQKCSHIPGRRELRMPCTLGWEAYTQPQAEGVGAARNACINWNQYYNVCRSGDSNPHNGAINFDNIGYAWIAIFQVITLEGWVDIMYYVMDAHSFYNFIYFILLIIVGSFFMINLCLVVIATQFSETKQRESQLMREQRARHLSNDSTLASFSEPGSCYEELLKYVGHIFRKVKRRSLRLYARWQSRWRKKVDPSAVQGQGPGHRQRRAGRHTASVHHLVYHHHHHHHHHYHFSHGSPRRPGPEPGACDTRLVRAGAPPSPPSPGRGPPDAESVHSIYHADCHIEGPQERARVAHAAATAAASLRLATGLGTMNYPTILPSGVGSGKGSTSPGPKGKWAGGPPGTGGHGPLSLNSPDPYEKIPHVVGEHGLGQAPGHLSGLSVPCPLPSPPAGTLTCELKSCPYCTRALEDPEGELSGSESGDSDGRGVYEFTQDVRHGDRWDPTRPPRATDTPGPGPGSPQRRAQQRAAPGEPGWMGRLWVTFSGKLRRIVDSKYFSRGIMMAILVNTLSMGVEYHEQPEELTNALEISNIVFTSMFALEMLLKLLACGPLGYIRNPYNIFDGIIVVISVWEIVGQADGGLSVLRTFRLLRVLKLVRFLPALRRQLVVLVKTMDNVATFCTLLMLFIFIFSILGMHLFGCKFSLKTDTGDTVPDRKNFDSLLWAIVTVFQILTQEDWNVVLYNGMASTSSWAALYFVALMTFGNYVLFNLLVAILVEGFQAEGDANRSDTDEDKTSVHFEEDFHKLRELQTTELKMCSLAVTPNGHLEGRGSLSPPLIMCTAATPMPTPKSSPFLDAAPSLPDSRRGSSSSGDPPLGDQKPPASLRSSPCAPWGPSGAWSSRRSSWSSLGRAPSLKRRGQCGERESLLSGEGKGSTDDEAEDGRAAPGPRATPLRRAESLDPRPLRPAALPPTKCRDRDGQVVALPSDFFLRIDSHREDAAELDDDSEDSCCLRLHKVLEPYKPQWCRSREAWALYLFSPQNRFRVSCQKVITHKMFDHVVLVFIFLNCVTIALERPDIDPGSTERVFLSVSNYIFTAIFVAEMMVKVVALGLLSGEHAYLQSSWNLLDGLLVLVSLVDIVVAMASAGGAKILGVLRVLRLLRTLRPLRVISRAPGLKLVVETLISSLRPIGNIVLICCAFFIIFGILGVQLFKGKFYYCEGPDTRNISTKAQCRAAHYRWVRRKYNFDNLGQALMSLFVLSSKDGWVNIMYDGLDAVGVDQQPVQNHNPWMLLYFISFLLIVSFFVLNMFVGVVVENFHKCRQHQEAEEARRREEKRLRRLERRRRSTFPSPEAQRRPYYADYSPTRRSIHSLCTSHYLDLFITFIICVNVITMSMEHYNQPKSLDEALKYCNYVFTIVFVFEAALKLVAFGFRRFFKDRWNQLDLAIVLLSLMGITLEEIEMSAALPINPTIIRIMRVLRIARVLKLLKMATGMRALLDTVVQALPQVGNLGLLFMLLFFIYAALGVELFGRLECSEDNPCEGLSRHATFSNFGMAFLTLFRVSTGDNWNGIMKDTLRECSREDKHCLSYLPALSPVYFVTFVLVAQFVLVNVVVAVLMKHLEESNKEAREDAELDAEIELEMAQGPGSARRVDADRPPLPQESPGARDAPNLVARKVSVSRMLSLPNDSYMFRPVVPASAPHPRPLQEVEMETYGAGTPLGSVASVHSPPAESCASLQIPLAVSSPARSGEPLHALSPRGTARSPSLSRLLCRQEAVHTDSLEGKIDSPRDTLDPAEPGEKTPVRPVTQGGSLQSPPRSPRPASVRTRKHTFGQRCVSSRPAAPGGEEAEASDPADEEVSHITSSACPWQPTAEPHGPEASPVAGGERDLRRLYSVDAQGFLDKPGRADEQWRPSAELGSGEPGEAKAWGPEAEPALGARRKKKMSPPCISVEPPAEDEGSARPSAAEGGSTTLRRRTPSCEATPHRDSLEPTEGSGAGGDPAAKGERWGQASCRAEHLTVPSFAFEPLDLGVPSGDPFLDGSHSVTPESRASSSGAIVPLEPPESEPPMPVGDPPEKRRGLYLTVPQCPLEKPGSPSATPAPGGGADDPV
T5 sequence (Q92731 whole entry): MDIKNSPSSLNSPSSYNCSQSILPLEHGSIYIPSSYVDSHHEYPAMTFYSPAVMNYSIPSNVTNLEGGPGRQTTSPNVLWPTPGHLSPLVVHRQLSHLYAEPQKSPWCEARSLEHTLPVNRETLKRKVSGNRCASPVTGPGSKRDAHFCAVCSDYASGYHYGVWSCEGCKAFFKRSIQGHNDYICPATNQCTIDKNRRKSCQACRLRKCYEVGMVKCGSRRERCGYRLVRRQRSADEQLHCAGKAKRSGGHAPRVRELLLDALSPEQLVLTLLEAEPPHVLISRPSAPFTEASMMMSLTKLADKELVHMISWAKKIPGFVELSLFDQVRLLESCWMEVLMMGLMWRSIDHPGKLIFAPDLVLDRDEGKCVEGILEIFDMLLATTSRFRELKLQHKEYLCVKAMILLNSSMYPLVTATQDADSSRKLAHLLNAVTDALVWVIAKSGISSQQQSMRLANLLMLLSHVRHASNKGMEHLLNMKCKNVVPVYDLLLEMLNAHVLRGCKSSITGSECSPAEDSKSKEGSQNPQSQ
Chain of Large T antigen (P03070 whole entry): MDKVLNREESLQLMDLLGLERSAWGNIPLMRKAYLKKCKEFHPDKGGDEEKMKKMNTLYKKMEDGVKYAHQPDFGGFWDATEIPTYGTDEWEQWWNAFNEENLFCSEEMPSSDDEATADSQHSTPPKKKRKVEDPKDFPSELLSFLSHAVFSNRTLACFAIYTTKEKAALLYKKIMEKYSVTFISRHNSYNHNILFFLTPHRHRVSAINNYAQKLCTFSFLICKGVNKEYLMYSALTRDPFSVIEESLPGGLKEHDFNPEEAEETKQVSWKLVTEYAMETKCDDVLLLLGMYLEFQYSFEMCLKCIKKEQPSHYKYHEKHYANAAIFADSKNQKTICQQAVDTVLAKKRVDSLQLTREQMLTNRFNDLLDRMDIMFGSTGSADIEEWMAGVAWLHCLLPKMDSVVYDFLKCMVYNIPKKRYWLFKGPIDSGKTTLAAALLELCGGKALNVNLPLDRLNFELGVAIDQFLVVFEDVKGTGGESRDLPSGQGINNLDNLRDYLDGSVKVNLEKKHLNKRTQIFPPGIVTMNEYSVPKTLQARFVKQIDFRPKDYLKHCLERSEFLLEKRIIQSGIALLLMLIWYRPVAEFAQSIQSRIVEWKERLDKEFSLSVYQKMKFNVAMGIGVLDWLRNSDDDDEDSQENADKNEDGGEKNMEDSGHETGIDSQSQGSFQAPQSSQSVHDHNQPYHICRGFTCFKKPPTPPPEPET
T2 sequence (P41145 whole entry): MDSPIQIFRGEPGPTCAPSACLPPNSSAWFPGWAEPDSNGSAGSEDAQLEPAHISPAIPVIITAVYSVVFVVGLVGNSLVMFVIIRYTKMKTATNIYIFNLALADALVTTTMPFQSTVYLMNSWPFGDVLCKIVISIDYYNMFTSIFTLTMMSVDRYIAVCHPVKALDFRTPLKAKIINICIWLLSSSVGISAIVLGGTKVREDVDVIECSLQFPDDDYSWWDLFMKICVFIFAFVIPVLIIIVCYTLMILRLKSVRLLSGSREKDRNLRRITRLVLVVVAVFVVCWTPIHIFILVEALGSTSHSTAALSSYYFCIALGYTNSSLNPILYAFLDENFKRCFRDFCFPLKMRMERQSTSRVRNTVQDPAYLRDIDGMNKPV
Chain of Beta-galactosidase (Q8VNN2 whole entry): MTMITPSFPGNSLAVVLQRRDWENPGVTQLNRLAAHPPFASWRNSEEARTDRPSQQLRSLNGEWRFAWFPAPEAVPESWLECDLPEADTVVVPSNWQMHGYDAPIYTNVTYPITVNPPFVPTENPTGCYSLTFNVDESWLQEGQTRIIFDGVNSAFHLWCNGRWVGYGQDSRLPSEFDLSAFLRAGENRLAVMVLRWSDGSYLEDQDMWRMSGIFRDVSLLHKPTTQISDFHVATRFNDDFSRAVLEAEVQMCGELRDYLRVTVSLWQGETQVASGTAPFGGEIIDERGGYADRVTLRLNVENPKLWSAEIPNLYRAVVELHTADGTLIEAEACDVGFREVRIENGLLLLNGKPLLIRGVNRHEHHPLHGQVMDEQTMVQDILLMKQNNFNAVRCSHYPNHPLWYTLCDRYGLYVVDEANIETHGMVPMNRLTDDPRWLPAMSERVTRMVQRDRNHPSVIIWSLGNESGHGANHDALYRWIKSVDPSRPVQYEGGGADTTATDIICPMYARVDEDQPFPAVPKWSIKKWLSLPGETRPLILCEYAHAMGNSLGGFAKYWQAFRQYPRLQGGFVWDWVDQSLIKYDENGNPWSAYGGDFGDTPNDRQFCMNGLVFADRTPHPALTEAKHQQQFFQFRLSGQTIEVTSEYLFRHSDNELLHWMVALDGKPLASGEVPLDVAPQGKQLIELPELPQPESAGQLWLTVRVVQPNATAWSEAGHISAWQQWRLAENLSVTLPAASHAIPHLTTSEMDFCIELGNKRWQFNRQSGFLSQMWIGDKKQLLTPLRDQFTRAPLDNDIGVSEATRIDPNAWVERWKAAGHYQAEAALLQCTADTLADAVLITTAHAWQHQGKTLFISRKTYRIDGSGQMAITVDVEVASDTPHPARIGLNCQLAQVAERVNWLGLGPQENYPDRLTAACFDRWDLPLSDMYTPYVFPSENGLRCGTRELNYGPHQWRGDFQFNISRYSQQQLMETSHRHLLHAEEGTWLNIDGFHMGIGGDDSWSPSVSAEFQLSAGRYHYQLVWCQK

For `CCCC1=C(C(=O)OCC)C(c2cc(Cl)cc(OC)c2OCC(=O)OCC)NC(=O)N1` (centres undefined), in assay [1], the IC50 was > 100 µM (inactive).

Turning to `O=S(=O)(c1ccccc1)N(F)S(=O)(=O)c1ccccc1`, the IC50 in assay [2] was 55.3 µM (active).

Regarding `Cc1sc(Cc2nc(O)cs2)nc1-c1ccccc1`, in assay [3], the half-maximal inhibitory concentration (IC50) is 15.6 µM (active). Further, the EC50 in assay [4] was > 31.5 µM (inactive). The pIC50 in assay [5] is below 4.49.

Take `O=C1NC(c2ccc(Br)cc2)Nc2ccccc21` (centres undefined): the AC50 in assay [6] was 15.3 µM (active). In addition, the EC50 in assay [7] was > 69.5 µM (inactive).

Regarding `COc1cc(/C=C2\SC(=S)N(NS(=O)(=O)c3ccc(C)cc3)C2=O)ccc1O`, the figures for the IC50 in [8], in assay [9] and in assay [10] were 27.1 µM (active), 19.2 µM (active) and 10.1 µM (active), respectively.

On to `COc1ccc(N(CC(=O)Nc2cccc(C(F)(F)F)c2)S(C)(=O)=O)cc1`, for which the EC50 in assay [11] is 7.98 µM (active).

With `COC(=O)C1=C(C)N(c2ccccc2)/C(=C/c2cccs2)C1=O`, the IC50 in [1] is > 50 µM (inactive).

Consider `Oc1ccccc1C1=Nc2nc3ccccc3n2C(c2ccccc2)C1` (centres undefined), for which the EC50 in assay [11] was 6.95 µM (active).

With `CCc1ccc(S(=O)(=O)NCCc2csc(-c3ccccc3)n2)s1`, in assay [11], the concentration giving a half-maximal response (EC50) is 4.22 µM (active).

`CSc1ccccc1NC(=O)c1noc2c1CCC2`: the IC50 in assay [1] is 12.6 µM (active); in assay [12] it was 3.77 µM (active); in assay [13], > 50 µM (not active).

In the case of `O=C(O)COc1ccccc1C(Nc1cccnc1)c1cc(Cl)c2cccnc2c1O` (centres undefined), the EC50 in assay [14] is > 150 µM (inactive); in assay [15] it was > 38 µM (not active); in assay [18], 11.8 µM (active). The IC50 in assay [9] is 38.4 µM (active); in assay [10] it was 10.3 µM (active); in assay [16], 1.71 µM (active). The AC50 in assay [17] is > 380 µM (inactive).

(Values after ChEMBL document CHEMBL1201862, “PubChem BioAssay data set” (2004).)
